Test results: ChEMBL document CHEMBL3091421, “Discovery of benzo[d]imidazo[5,1-b]thiazole as a new class of phosphodiesterase 10A inhibitors” (Bioorg Med Chem Lett, 2013)

Assays:
[1] = Cmax in Sprague-Dawley rat at 10 mg/kg, po by LC-MS/MS analysis; format: ADME, organism-based; set-up: dose 10 mg/kg, route oral; conditions: in vivo
[2] = Half life in Sprague-Dawley rat at 10 mg/kg, po by LC-MS/MS analysis; format: ADME, organism-based; set-up: dose 10 mg/kg, route oral; conditions: in vivo
[3] = tested on: Rattus norvegicus; experiment: Antipsychotic activity in ip dosed Sprague-Dawley rat assessed as reduction in quipazine-induced head-twitches administered 15 mins prior to quipazine-challenge measured immediately relative to vehicle-treated control; format: functional
[4] = molecular target: cGMP-specific 3',5'-cyclic phosphodiesterase (Homo sapiens) (UniProt O76074); experiment: Inhibition of PDE5A (unknown origin) using [3H]-cGMP as substrate at 10 uM after 30 mins by radiometric assay
[5] = tested on: Rattus norvegicus; experiment: Antipsychotic activity in Sprague-Dawley rat psychosis model assessed as inhibition of MK-801-induced stereotypy at 1 mg/kg, ip administered 5 mins prior to MK-801-challenge measured after 15 mins up to 1 hr relative to vehicle-treated control; format: functional; conditions: route intraperitoneal
[6] = tested on: Rattus norvegicus; experiment: Antipsychotic activity in ip dosed Sprague-Dawley rat psychosis model assessed as inhibition of MK-801-induced locomotion administered 5 mins prior to MK-801-challenge measured after 15 mins up to 1 hr relative to vehicle-treated control; format: functional
[7] = tested on: Rattus norvegicus; experiment: Antipsychotic activity in Sprague-Dawley rat assessed as reduction in quipazine-induced head-twitches at 3 mg/kg, ip administered 15 mins prior to quipazine-challenge measured immediately relative to vehicle-treated control; format: functional; set-up: scale not given: the % may be the effect or the level left; conditions: route intraperitoneal
[8] = molecular target: cGMP-dependent 3',5'-cyclic phosphodiesterase (Homo sapiens) (UniProt O00408); experiment: Inhibition of PDE2A (unknown origin) using cAMP as substrate at 10 uM after 30 mins by HTRF method
[9] = species on record: Homo sapiens; experiment: Selectivity ratio of IC50 for PDE8A (unknown origin) to IC50 for human recombinant PDE10A
[10] = tested on: Rattus norvegicus; experiment: Antipsychotic activity in Sprague-Dawley rat psychosis model assessed as inhibition of MK-801-induced locomotion at 6 mg/kg, ip administered 5 mins prior to MK-801-challenge measured after 15 mins up to 1 hr relative to vehicle-treated control; format: functional; conditions: route intraperitoneal
[11] = molecular target: High affinity 3',5'-cyclic-AMP phosphodiesterase 7A (Homo sapiens) (UniProt Q13946); experiment: Inhibition of PDE7A1 (unknown origin) using [3H]-cAMP as substrate at 10 uM after 30 mins by radiometric assay
[12] = tested on: Rattus norvegicus; experiment: Antipsychotic activity in Sprague-Dawley rat assessed as reduction in quipazine-induced head-twitches at 0.3 mg/kg, ip administered 15 mins prior to quipazine-challenge measured immediately relative to vehicle-treated control; format: functional; set-up: scale not given: the % may be the effect or the level left; conditions: route intraperitoneal
[13] = Metabolic stability in rat liver microsomes assessed as compound remaining after 60 mins; format: ADME; conditions: read-out: Stability
[14] = tested on: Rattus norvegicus; experiment: Antipsychotic activity in Sprague-Dawley rat psychosis model assessed as inhibition of MK-801-induced locomotion at 10 mg/kg, ip administered 5 mins prior to MK-801-challenge measured after 15 mins up to 1 hr relative to vehicle-treated control; format: functional; conditions: route intraperitoneal
[15] = tested on: Rattus norvegicus; experiment: Antipsychotic activity in Sprague-Dawley rat psychosis model assessed as inhibition of MK-801-induced locomotion at 0.3 mg/kg, ip administered 5 mins prior to MK-801-challenge measured after 15 mins up to 1 hr relative to vehicle-treated control; format: functional; conditions: route intraperitoneal
[16] = tested on: Rattus norvegicus; experiment: Antipsychotic activity in ip dosed Sprague-Dawley rat conditioned avoidance response model assessed as reduction in avoidance after 15 mins relative to vehicle-treated control; format: functional
[17] = tested on: Rattus norvegicus; experiment: Antipsychotic activity in Sprague-Dawley rat psychosis model assessed as inhibition of MK-801-induced ataxia at 0.3 mg/kg, ip administered 5 mins prior to MK-801-challenge measured after 15 mins up to 1 hr relative to vehicle-treated control; format: functional; conditions: route intraperitoneal
[18] = Plasma concentration in Sprague-Dawley rat at 10 mg/kg, po after 30 mins; format: ADME, organism-based; set-up: dose 10 mg/kg, route oral
[19] = tested on: Rattus norvegicus; experiment: Antipsychotic activity in Sprague-Dawley rat psychosis model assessed as inhibition of MK-801-induced stereotypy at 6 mg/kg, ip administered 5 mins prior to MK-801-challenge measured after 15 mins up to 1 hr relative to vehicle-treated control; format: functional; conditions: route intraperitoneal
[20] = tested on: Rattus norvegicus; experiment: Antipsychotic activity in Sprague-Dawley rat assessed as reduction in quipazine-induced head-twitches at 6 mg/kg, ip administered 15 mins prior to quipazine-challenge measured immediately relative to vehicle-treated control; format: functional; set-up: scale not given: the % may be the effect or the level left; conditions: route intraperitoneal
[21] = Ratio of drug level in brain to plasma in Sprague-Dawley rat at 10 mg/kg, po after 30 mins; format: ADME, organism-based; set-up: dose 10 mg/kg, route oral; conditions: brain and plasma, read-out: BPR
[22] = molecular target: Dual 3',5'-cyclic-AMP and -GMP phosphodiesterase 11A (Homo sapiens) (UniProt Q9HCR9); experiment: Inhibition of PDE11A (unknown origin) using [3H]-cAMP as substrate at 10 uM after 30 mins by radiometric assay
[23] = AUC (0 to 24 hrs) in Sprague-Dawley rat at 10 mg/kg, po by LC-MS/MS analysis; format: ADME, organism-based; set-up: time < 24 hr, dose 10 mg/kg, route oral; conditions: plasma
[24] = molecular target: Dual specificity calcium/calmodulin-dependent 3',5'-cyclic nucleotide phosphodiesterase 1A (Homo sapiens) (UniProt P54750); experiment: Inhibition of PDE1A (unknown origin) at 10 uM
[25] = tested on: Mus musculus; experiment: Antipsychotic activity in ip dosed CD-1 mouse assessed as reduction in apomorphine-induced sniffing behavior administered 15 mins prior to apomorphine-challenge measured immediately relative to vehicle-treated control; format: functional; conditions: CD-1, ip
[26] = tested on: Rattus norvegicus; experiment: Antipsychotic activity in Sprague-Dawley rat psychosis model assessed as inhibition of MK-801-induced locomotion at 3 mg/kg, ip administered 5 mins prior to MK-801-challenge measured after 15 mins up to 1 hr relative to vehicle-treated control; format: functional; conditions: route intraperitoneal

Chain of High affinity 3',5'-cyclic-AMP phosphodiesterase 7A (Homo sapiens) (Q13946 whole entry): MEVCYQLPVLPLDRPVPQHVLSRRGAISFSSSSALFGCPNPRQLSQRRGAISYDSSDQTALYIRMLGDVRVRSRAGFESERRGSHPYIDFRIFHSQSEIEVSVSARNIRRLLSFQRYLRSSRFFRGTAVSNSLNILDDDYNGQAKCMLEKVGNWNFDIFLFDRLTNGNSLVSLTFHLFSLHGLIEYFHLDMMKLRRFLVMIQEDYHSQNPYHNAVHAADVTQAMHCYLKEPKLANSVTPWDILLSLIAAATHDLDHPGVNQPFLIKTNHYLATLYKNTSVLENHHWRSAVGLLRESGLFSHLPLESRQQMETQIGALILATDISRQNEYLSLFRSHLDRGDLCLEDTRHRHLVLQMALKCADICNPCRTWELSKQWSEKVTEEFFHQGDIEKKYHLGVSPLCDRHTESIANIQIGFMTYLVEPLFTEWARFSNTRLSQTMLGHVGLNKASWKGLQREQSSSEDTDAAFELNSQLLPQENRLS
Chain of Dual 3',5'-cyclic-AMP and -GMP phosphodiesterase 11A (Homo sapiens) (Q9HCR9 whole entry, looked up): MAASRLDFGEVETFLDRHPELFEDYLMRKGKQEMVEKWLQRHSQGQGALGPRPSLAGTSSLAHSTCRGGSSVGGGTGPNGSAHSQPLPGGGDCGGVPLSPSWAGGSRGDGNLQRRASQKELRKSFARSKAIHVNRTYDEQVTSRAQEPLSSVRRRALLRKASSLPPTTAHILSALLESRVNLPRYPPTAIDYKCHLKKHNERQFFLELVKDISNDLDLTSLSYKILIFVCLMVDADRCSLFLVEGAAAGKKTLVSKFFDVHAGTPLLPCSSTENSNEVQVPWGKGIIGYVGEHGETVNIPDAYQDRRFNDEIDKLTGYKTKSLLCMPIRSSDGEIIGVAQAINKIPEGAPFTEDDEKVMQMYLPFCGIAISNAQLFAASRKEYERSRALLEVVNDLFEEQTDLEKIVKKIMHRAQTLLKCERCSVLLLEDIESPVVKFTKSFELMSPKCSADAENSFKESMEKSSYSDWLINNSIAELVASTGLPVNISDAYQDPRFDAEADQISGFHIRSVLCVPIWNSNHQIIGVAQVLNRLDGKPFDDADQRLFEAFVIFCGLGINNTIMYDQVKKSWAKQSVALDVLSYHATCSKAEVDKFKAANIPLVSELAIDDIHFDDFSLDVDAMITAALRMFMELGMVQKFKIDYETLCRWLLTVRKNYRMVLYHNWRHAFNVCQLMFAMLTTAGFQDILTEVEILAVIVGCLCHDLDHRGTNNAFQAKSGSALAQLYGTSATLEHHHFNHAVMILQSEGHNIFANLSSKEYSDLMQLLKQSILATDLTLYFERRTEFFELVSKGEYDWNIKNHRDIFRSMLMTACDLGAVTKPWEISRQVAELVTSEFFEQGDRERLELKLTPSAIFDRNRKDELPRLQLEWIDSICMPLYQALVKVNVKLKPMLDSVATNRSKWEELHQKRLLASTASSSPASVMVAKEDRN
Chain of cGMP-dependent 3',5'-cyclic phosphodiesterase (Homo sapiens) (O00408 whole entry): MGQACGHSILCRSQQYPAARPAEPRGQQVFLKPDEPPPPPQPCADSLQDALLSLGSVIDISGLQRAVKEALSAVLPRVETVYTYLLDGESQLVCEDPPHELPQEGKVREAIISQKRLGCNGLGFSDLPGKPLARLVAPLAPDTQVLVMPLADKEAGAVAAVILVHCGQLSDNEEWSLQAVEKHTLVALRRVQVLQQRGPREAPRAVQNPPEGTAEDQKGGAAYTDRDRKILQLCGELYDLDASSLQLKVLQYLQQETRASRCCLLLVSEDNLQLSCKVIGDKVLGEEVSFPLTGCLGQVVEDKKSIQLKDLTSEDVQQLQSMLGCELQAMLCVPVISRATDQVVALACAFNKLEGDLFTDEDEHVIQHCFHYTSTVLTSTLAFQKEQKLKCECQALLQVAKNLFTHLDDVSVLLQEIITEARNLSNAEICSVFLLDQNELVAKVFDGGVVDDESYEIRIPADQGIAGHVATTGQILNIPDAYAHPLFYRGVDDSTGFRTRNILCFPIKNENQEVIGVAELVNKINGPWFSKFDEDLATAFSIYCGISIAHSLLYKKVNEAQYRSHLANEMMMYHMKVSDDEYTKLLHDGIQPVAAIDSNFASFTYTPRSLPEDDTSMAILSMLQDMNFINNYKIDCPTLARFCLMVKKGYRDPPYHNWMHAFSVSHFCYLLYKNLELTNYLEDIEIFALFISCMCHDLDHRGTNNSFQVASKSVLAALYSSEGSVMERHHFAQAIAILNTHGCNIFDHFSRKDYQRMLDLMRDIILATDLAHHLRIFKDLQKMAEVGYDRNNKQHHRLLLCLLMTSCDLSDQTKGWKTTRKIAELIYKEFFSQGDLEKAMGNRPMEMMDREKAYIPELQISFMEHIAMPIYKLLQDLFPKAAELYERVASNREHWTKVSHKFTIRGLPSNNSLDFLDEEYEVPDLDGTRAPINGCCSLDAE
Chain of Dual specificity calcium/calmodulin-dependent 3',5'-cyclic nucleotide phosphodiesterase 1A (Homo sapiens) (P54750 whole entry): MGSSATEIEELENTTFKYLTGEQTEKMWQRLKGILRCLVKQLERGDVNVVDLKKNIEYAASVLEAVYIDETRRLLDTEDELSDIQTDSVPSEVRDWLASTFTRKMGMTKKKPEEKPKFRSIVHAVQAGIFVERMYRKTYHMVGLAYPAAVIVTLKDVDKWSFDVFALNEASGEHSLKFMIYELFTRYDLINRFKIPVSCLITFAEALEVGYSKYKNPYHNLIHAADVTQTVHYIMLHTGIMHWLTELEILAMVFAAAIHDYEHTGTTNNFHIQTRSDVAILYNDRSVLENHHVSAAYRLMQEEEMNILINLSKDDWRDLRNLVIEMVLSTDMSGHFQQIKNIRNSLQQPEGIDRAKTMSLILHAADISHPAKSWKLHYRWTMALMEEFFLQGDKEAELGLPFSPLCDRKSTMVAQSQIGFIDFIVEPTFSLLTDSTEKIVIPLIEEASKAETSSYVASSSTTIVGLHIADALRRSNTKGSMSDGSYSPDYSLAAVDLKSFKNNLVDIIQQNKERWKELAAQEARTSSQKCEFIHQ

Cmax [1]: 720 ng/mL | half-life [2]: 2.1 h | inhibition [4]: 45.5% | inhibition [8]: 60.8% | Ratio IC50 [9]: > 500 | inhibition [11]: 44% | remaining at 1 h [13]: 65% | concentration at 0.5 h [18]: 370 ng/mL | Kp at 0.5 h [21]: 1.82 | inhibition [22]: 19.2% | AUC(0-t) at 24 h [23]: 2830 ng·h/mL | inhibition [24]: 62.4%
SMILES: Cc1nc(C2CCOCC2)n2c1sc1cc(OCc3ccc4ccccc4n3)ccc12
ED50 [3]: 1.27 mg/kg | inhibition in vivo at 1 mg/kg [5]: 27% | ED50 [6]: 1.44 mg/kg | inhibition [6]: Dose-dependent effect | Activity [7]: 67% | inhibition in vivo at 6 mg/kg [10]: 76% | Activity [12]: 25% | inhibition in vivo at 10 mg/kg [14]: 83% | inhibition in vivo at 0.3 mg/kg [15]: 13% | Activity [16]: Dose-dependent effect | ED50 ([16]; 0.25 h): 1.6 mg/kg | inhibition in vivo at 0.3 mg/kg [17]: 3% | inhibition in vivo at 6 mg/kg [19]: 69% | Activity [20]: 76% | ED50 [25]: 16.3 mg/kg | inhibition in vivo at 3 mg/kg [26]: 58%
